Assay results taken from paper PMC9127750, “Structure-based design of CDC42 effector interaction inhibitors for the treatment of cancer” (Cell reports, 2022).
“And” between values parts separate entries of the source, which are not always exact repeats. Identical values can stand only once.

Tested on: WM3248 melanoma cells, 486 antibodies
Test: Reverse phase protein arrays (RPPA)
Format: cell-based, Human
Text: Pellets were snap frozen in liquid nitrogen and shipped to MD Anderson Cancer Center core RPPA facility for RPPA analysis (Table S5). Three biological replicates for each sample were generated.
Nomenclatures on the RPPA heatmaps: name_of_antibody.species_of_antibody.status_of_antibody. V - antibody validated; C - validation of antibody in progress; Q - antibody nonspecific; E – under evaluation; antibodies raised in M - mouse, G - goat, R - rabbit, or T - rat.

[1] = 20, replicates 1-3, normalized to 0
[2] = Norm_5: replicates 1-3 and Average, relative to 0

SMILES: CN(C)c1cccc(Nc2cc(-c3ccccc3)nc(C3CCNCC3)n2)c1 [ARN22089, N1,N1-dimethyl-N3-(6-phenyl-2-(piperidin-4-yl)pyrimidin-4-yl)benzene-1,3-diamine]
- eIF4E_pS209.R.V Norm_20 [1]: 0.954 and 0.835 and 1.321
- eIF4G.R.C Norm_20 [1]: 1.493 and 1.003 and 0.999
- MYH11.R.C Average (Norm_5, normalized to Norm_0): 1.033
- Myosin.IIa.R.C Average (Norm_5, normalized to Norm_0): 0.991
- Myosin.IIa_pS1943.R.V Average (Norm_5, normalized to Norm_0): 0.992
- Myt1.R.C Average (Norm_5, normalized to Norm_0): 1.030
- N.Cadherin.R.V Average (Norm_5, normalized to Norm_0): 0.967
- N.Ras.M.V Average (Norm_5, normalized to Norm_0): 0.979
- NDRG1_pT346.R.V Average (Norm_5, normalized to Norm_0): 1.270
- NDUFB4.R.V Average (Norm_5, normalized to Norm_0): 0.954
- NRF2.R.C Average (Norm_5, normalized to Norm_0): 1.024
- Notch1.R.V Average (Norm_5, normalized to Norm_0): 0.893
- Notch1.cleaved.R.V Average (Norm_5, normalized to Norm_0): 1.048
- Notch3.R.C Average (Norm_5, normalized to Norm_0): 0.987
- Oct.4.R.C Average (Norm_5, normalized to Norm_0): 1.097
- P.Cadherin.R.C Average (Norm_5, normalized to Norm_0): 1.185
- PAI.1.M.V Average (Norm_5, normalized to Norm_0): 0.899
- PAICS.R.C Average (Norm_5, normalized to Norm_0): 0.934
- PAK1.R.V Average (Norm_5, normalized to Norm_0): 0.952
- PAK4.R.V Average (Norm_5, normalized to Norm_0): 0.942
- PAK_pS474_S602_S560.R.V Average (Norm_5, normalized to Norm_0): 0.943
- PAK_pT423_T402.R.C Average (Norm_5, normalized to Norm_0): 0.942
- PAR.R.C Average (Norm_5, normalized to Norm_0): 2.806
- PARG.R.C Average (Norm_5, normalized to Norm_0): 1.053
- PAX6.R.V Average (Norm_5, normalized to Norm_0): 0.980
- PAX8.R.C Average (Norm_5, normalized to Norm_0): 0.929
- PCNA.M.C Average (Norm_5, normalized to Norm_0): 0.930
- PD.1.R.V Average (Norm_5, normalized to Norm_0): 0.933
- PD.L1.R.C Average (Norm_5, normalized to Norm_0): 1.049
- PDH.M.V Average (Norm_5, normalized to Norm_0): 0.971
- PDHA1.R.V Average (Norm_5, normalized to Norm_0): 1.000
- PDHK1.R.C Average (Norm_5, normalized to Norm_0): 1.047
- PDK1.R.V Average (Norm_5, normalized to Norm_0): 1.053
- PDK1_pS241.R.V Average (Norm_5, normalized to Norm_0): 1.123
- PEA.15.R.V Average (Norm_5, normalized to Norm_0): 0.989
- PEA.15_pS116.R.V Average (Norm_5, normalized to Norm_0): 0.945
- PERK.R.V Average (Norm_5, normalized to Norm_0): 0.967
- PGM1.R.V Average (Norm_5, normalized to Norm_0): 1.019
- PHLPP.R.V Average (Norm_5, normalized to Norm_0): 1.011
- PI3K.p85.R.C Average (Norm_5, normalized to Norm_0): 0.931
- PI3K.p110.a.R.C Average (Norm_5, normalized to Norm_0): 1.007
- PI3K.p110.b.M.C Average (Norm_5, normalized to Norm_0): 0.980
- PKA.a.R.V Average (Norm_5, normalized to Norm_0): 1.083
- PKC.a.b.II_pT638_T641.R.V Average (Norm_5, normalized to Norm_0): 0.910
- PKC.b.II_pS660.R.V Average (Norm_5, normalized to Norm_0): 1.083
- PKCa.R.V Average (Norm_5, normalized to Norm_0): 1.160
- PLC.gamma1.R.V Average (Norm_5, normalized to Norm_0): 1.065
- PLC.gamma1_pS1248.R.V Average (Norm_5, normalized to Norm_0): 1.197
- PLC.gamma2_pY759.R.V Average (Norm_5, normalized to Norm_0): 0.941
- PLK1.R.C Average (Norm_5, normalized to Norm_0): 0.892
- PMS2.R.V Average (Norm_5, normalized to Norm_0): 0.916
- PR.R.V Average (Norm_5, normalized to Norm_0): 0.959
- PRAS40.M.C Average (Norm_5, normalized to Norm_0): 0.988
- PRC1_pT481.R.C Average (Norm_5, normalized to Norm_0): 0.915
- Patched.R.C Average (Norm_5, normalized to Norm_0): 1.046
- Paxillin.R.C Average (Norm_5, normalized to Norm_0): 1.013
- Pdcd4.R.C Average (Norm_5, normalized to Norm_0): 1.126
- Porin.M.V Average (Norm_5, normalized to Norm_0): 0.959
- p21.R.C Average (Norm_5, normalized to Norm_0): 0.958
- p27.Kip1.R.C Average (Norm_5, normalized to Norm_0): 0.986
- p27_pT157.R.C Average (Norm_5, normalized to Norm_0): 1.081
- p27_pT198.R.V Average (Norm_5, normalized to Norm_0): 1.051
- p38.MAPK._pT180_Y182.R.V Average (Norm_5, normalized to Norm_0): 1.202
- p38.a.M.V Average (Norm_5, normalized to Norm_0): 0.984
- p44.42.MAPK.R.V Average (Norm_5, normalized to Norm_0): 1.160
- p53.R.C Average (Norm_5, normalized to Norm_0): 1.083
- p70.S6K1.R.V Average (Norm_5, normalized to Norm_0): 1.109
- p90RSK_pT573.R.C Average (Norm_5, normalized to Norm_0): 0.871
- PREX1.R.V normalized RPPA signal [2]: 1.167 and 1.060 and 1.135 and 1.121
- PTEN.R.V normalized RPPA signal [2]: 1.061 and 1.012 and 1.047
- PTPN12.R.V normalized RPPA signal [2]: 1.010 and 0.988 and 1.023
- PYGB.R.V normalized RPPA signal [2]: 1.017 and 1.164 and 0.766 and 0.982
- PYGM.M.C normalized RPPA signal [2]: 0.997 and 1.153 and 0.846 and 0.999
- Puma.R.C normalized RPPA signal [2]: 1.064 and 1.136 and 0.836 and 1.012
- Pyk2_pY402.R.C normalized RPPA signal [2]: 1.133 and 1.024 and 1.065
- RBM15.R.V normalized RPPA signal [2]: 0.984 and 1.128
- RIP3.R.C normalized RPPA signal [2]: 1.061 and 1.027 and 1.055 and 1.048
- RIP.R.C normalized RPPA signal [2]: 0.916 and 0.977 and 0.799 and 0.897
- RPA32.R.V normalized RPPA signal [2]: 1.150 and 0.846 and 1.011
- RPA32_pS4_S8.R.C normalized RPPA signal [2]: 1.171 and 1.234 and 0.878
- RRM1.R.C normalized RPPA signal [2]: 0.936 and 0.952 and 0.975
- RRM2.R.C normalized RPPA signal [2]: 0.907 and 1.001 and 0.922 and 0.943
